What was measured:
hippocampal neurogenesis = conditions: literature; antidepressants given chronically; cited from earlier work
[1] = test system: BrdU-immunopositive cells in the hippocampal dentate granule cell layer; experiment: BrdU expression in hippocampal dentate granule cell layer (neurogenesis); assay type: in vivo, rat; conditions: for BrdU-immunopositive cell number/granule cell layer: 20 mg/kg, 40 days by gavage, BrdU 100 mg/kg i.p. last eight days; for effect on expression of BrdU-immunopositive cells / neurogenic rate: chronic 20 mg/kg, versus vehicle-treated controls
Experimental: (§1) Experimentally naïve postnatal day 80 (at the time of NCAM-PSA assessment) male Wistar rats were employed in all studies. All animals were housed singly and maintained at 22±2° C. on a standard 12 h-light/dark cycle with food and water available ad libitum. Animals were introduced to the experimental holding rooms at least 3 days prior to the commencement of any study.

[2] = test system: NCAM PSA-immunoreactive neurons, dentate granule cell layer/hilar border; experiment: NCAM PSA expression in hippocampal dentate gyrus after chronic administration; assay type: in vivo, rat; conditions: for PSA immunopositive cell frequency: hippocampal dentate; for effect on frequency of polysialylated neurons in the subventricular zone of the rat hippocampal dentate gyrus: chronic administration, versus vehicle-treated control
Experimental: as §1
(§2) Freshly dissected whole rat brain was carefully coated in optimum cutting temperature (OCT) compound and lowered into a Cryoprep freezing apparatus containing dry-ice-cooled n-hexane. The function of the OCT compound and n-hexane was to provide an even freezing of the tissue, thus avoiding freezing artefacts. Horizontal sections for all studies were cut semi-automatically or automatically on a Microm Series 500 cryostat. Fresh, frozen brain sections (12 μm) were cut at −15° C., while cryoprotected. All sections were prepared on the day of the experiment and were not pre-cut and stored frozen.
(§3) Horizontal cryosections were cut from the frozen tissue at various levels with reference to Bregma (see above), these were thaw-mounted onto glass slides, which were coated with poly-1-lysine diluted 1:1 in dH2O, and immersion fixed for 30 minutes with 70% ethanol. The sections were then washed twice for 10 minutes each in 0.1M phosphate buffered saline (PBS) and incubated for 20 hours in a humidified chamber at room temperature with the primary antibody diluted 1:500 in PBS containing 1% bovin serum albumin (w/v) and 1% normal goat serum (v/v) to reduce non-specific staining. The humidified chamber prevented the sections from evaporating. The primary antibody was a monoclonal raised against PSA, which was provided by Professor G, Rougon (CNRS UMR 6545, 13288 Marseille, France). On completion of the primary antibody incubation, the sections were washed twice for ten minutes each in PBS and incubated at room temperature for 3 hours in the humidified chamber with the secondary antibody, at a dilution factor of 1:100, again in PBS containing 1% BSA and 1% NGS. The secondary antibody was a goat anti-mouse IgM conjugated to fluorescein (FITC). Following the second incubation, the sections ware again washed twice for ten minutes each in PBS, mounted in the fluorescence enhancing medium Citifluor® and observed for fluorescence with a Leitz DM RB fluorescent microscope.
(§4) Quantitative image analysis was performed using the Leica Quantimet 500®, a P.C.-based software package, which was connected to the fluorescence microscope with a high sensitivity CCD video camera. Each microscope lens was calibrated for length and area measurements using a 1 mm graticule. The total number of NCAM PSA-immunoreactive neurons on the right dentate granule cell layer/hilar border were counted in 7 alternate 12 μm sections commencing −5.6 mm from Bregma (Paxinos and Watson, 1986), to preclude double counting of the 5-10 μm perikarya. Cell identification was aided by the use of the nuclear counter-stain propidium iodide (40 ng/ml PBS; 60 sec). The number of cells was then divided by the total area of the dentate granule cell layer and multiplied by the average granule cell layer area for a p80 rat, which is 0.15±0.01 mm^2 at this level. This was done for each section and a mean±SEM was calculated for each brain with the results expressed as PSA-positive cells per unit area. […] Cell identification was again aided by the use of the nuclear counter-stain propidium iodide (40 ng/ml PBS; 60 sec) with the use of alternate sections eliminating the possibility of double counting. Cell counts were divided by the length of the cortex and multiplied by the average length of the cortex, which was taken to be 10 mm. This was completed for each section and a mean±SEM was calculated for each brain with the results expressed as PSA-positive cells per unit length.
NCAM PSA-positive cell numbers were obtained from each animal group.

[3] = test system: NCAM PSA-immunoreactive neurons, dentate granule cell layer/hilar border; experiment: NCAM PSA expression in hippocampal dentate gyrus with water maze training; assay type: in vivo, rat; conditions: for effect on frequency of polysialylated neurons at 12 h following water maze training: versus untrained drug-treated and trained drug-naive animals
Experimental: as §1, §2, §3, §4
In this protocol animals were introduced to the training environment 5 days prior to training, and individually housed according to standard conditions. […]

[4] = test system: retention of a spacial memory task; conditions: rat, 10 mg/kg p.o.; cited from earlier work
seizure threshold = conditions: rat MEST test, dose range 0.1-30 mg/kg; cited from earlier work
rat 5-HT6 receptors = rat 5-HT6 receptors (Rattus norvegicus, UniProt P31388); conditions: cited from earlier work
[5] = in vivo; cited from earlier work
[6] = test system: polysialylated neurons in layer II of the entorhinal and perirhinal cortex; experiment: NCAM PSA expression in medial temporal lobe after chronic administration; assay type: in vivo, rat; conditions: 20 mg/kg; for PSA immunopositive cell frequency: medial temporal lobe, 40 days by gavage
Experimental: Experimentally naïve postnatal day 80 (at the time of NCAM-PSA assessment) male Wistar rats were employed in all studies. All animals were housed singly and maintained at 22±2° C. on a standard 12 h-light/dark cycle with food and water available ad libitum. Animals were introduced to the experimental holding rooms at least 3 days prior to the commencement of any study. The frequency of polysialylated neurons in the rat medial temporal lobe was also examined following chronic exposure to 5-HT6 antagonist. […] Horizontal cryosections were cut from the frozen tissue at various levels with reference to Bregma (see above), these were thaw-mounted onto glass slides, which were coated with poly-[…] diluted 1:1 in dH2O, and immersion fixed for 30 minutes with 70% ethanol. The sections were then washed twice for 10 minutes each in 0.1M phosphate buffered saline (PBS) and incubated for 20 hours in a humidified chamber at room temperature with the primary antibody diluted 1:500 in PBS containing 1% bovin serum albumin (w/v) and 1% normal goat serum (v/v) to reduce non-specific staining. The humidified chamber prevented the sections from evaporating. The primary antibody was a monoclonal raised against PSA, which was provided by Professor G, Rougon (CNRS UMR 6545, 13288 Marseille, France). On completion of the primary antibody incubation, the sections were washed twice for ten minutes each in PBS and incubated at room temperature for 3 hours in the humidified chamber with the secondary antibody, at a dilution factor of 1:100, again in PBS containing 1% BSA and 1% NGS. The secondary antibody was a goat anti-mouse IgM conjugated to fluorescein (FITC). Following the second incubation, the sections ware again washed twice for ten minutes each in PBS, mounted in the fluorescence enhancing medium Citifluor® and observed for fluorescence with a Leitz DM RB fluorescent microscope. Quantitative image analysis was performed using the Leica Quantimet 500®, a P.C.-based software package, which was connected to the fluorescence microscope with a high sensitivity CCD video camera. Each microscope lens was calibrated for length and area measurements using a 1 mm graticule. […] Cell identification was aided by the use of the nuclear counter-stain propidium iodide (40 ng/ml PBS; 60 sec). […] This was done for each section and a mean±SEM was calculated for each brain with the results expressed as PSA-positive cells per unit area. […] Cell identification was again aided by the use of the nuclear counter-stain propidium iodide (40 ng/ml PBS; 60 sec) with the use of alternate sections eliminating the possibility of double counting. Cell counts were divided by the length of the cortex and multiplied by the average length of the cortex, which was taken to be 10 mm. This was completed for each section and a mean±SEM was calculated for each brain with the results expressed as PSA-positive cells per unit length. […] NCAM PSA-positive cell numbers were obtained from each animal group. Results were expressed as mean±SEM with at least 3-6 values per group and analysed by ANOVA or unpaired non-parametric, Student's t-test, as indicated. […] Drug administration ceased 24 h prior to animal sacrifice. Animal weight gain and general physical condition was monitored daily. Methylcellulose (1% w/v) treated controls and use of the antipyschotic clozapine were employed for comparison.

[7] = Example 3, 20 mg/kg, 40 days by gavage

Sequence of rat 5-HT6 receptors (P31388 whole entry): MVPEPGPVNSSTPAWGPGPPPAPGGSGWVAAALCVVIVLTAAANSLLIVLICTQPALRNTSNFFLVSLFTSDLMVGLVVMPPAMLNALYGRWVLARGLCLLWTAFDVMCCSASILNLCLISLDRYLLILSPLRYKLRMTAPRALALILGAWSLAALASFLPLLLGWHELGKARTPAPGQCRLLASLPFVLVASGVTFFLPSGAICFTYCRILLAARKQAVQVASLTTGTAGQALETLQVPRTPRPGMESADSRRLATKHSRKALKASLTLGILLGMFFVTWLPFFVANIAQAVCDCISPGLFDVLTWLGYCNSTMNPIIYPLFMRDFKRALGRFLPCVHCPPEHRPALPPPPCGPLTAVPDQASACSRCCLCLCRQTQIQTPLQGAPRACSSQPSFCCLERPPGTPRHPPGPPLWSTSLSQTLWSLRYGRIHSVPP

CCOc1ccccc1OC(c1ccccc1)C1CNCCO1 (stereo not shown) [reboxetine]
effect on hippocampal neurogenesis (hippocampal neurogenesis): stimulate hippocampal neurogenesis

COc1ccc(S(=O)(=O)Nc2cc(Cl)cc(Cl)c2OC)cc1N1CCNCC1.Cl [SB399885, N-(3,5-dichloro-2-methoxy-phenyl)-4-methoxy-3-piperazin-1-yl-benzenesulfonamide hydrochloride]
BrdU-immunopositive cell number/granule cell layer [1]: 2296.7 ± 49.1
effect on expression of BrdU-immunopositive cells / neurogenic rate [1]: without altering neurogenic rate
PSA immunopositive cell frequency ([2]; Example 3, 3 mg/kg, 40 days by gavage): 81.4 ± 5.3 PSA-positive cells per unit area
PSA immunopositive cell frequency ([2]; Example 3, 10 mg/kg, 40 days by gavage): 87.4 ± 5.4 PSA-positive cells per unit area
PSA immunopositive cell frequency [2, 7]: 104.2 ± 4.4 PSA-positive cells per unit area
effect on frequency of polysialylated neurons in the subventricular zone of the rat hippocampal dentate gyrus [2]: significantly increase
dose dependent increase in basal frequency of hippocampal polysialylated neurons compared with SB271046 of Example 1 ([2]; chronic treatment, analysis of variance F[1,21]=5.882, P=0.0244): significantly greater
PSA immunopositive cell frequency ([3]; Example 4, chronic 20 mg/kg, 40 days by gavage, 12 h post water maze training): 125.9 ± 4.7 PSA-positive cells per unit area
PSA immunopositive cell frequency ([3]; Example 4, chronic 20 mg/kg, 40 days by gavage, untrained): 104.2 ± 4.4 PSA-positive cells per unit area
increase in frequency of hippocampal polysialylated neurons 12 h following water maze training compared with SB271046 of Example 2 ([3]; chronic 20 mg/kg, Student's t-test P=0.0337): significantly greater
effect on frequency of polysialylated neurons at 12 h following water maze training ([3]; chronic 20 mg/kg): significantly increase

COc1ccc(NS(=O)(=O)c2sc3ccc(Cl)cc3c2C)cc1N1CCNCC1.Cl [SB271046, 5-Chloro-3-methylbenzo[b]thiophene-2-sulfonic acid (4-methoxy-3-piperazin-1-ylphenyl)amide hydrochloride]
retention of a spacial memory task [4]: significant improvements
seizure threshold (seizure threshold): increases seizure threshold
BrdU-immunopositive cell number/granule cell layer [1]: 2332 ± 136.5
effect on expression of BrdU-immunopositive cells / neurogenic rate [1]: without altering neurogenic rate
pKi (rat 5-HT6 receptors): 9.0
PSA immunopositive cell frequency ([2]; Example 1, 3 mg/kg, 40 days by gavage): 70.3 ± 3.9 PSA-positive cells per unit area
PSA immunopositive cell frequency ([2]; Example 1, 10 mg/kg, 40 days by gavage): 82.4 ± 1.7 PSA-positive cells per unit area
PSA immunopositive cell frequency ([2]; Example 1, 20 mg/kg, 40 days by gavage): 85.8 ± 8.4 PSA-positive cells per unit area
PSA immunopositive cell frequency [2, 7]: 78.3 ± 3.4 PSA-positive cells per unit area
frequency of polysialylated neurons in repeat group compared with Example 1 ([2]; Example 3 repeat, 20 mg/kg chronic): no difference
effect on frequency of polysialylated neurons in the subventricular zone of the rat hippocampal dentate gyrus [2]: significantly increase
PSA immunopositive cell frequency ([3]; Example 2, acute 20 mg/kg by gavage 30 min before water maze training, 12 h post-training): 96.0 ± 5.5 PSA-positive cells per unit area
PSA immunopositive cell frequency ([3]; Example 2, acute 20 mg/kg by gavage, untrained): 64.2 ± 4.3 PSA-positive cells per unit area
PSA immunopositive cell frequency ([3]; Example 2, chronic 20 mg/kg, 40 days by gavage, 12 h post water maze training): 109.8 ± 1.8 PSA-positive cells per unit area
PSA immunopositive cell frequency ([3]; Example 2, chronic 20 mg/kg, 40 days by gavage, untrained): 85.8 ± 1.3 PSA-positive cells per unit area
effect on frequency of polysialylated neurons at 12 h following water maze training ([3]; acute 20 mg/kg): significantly increase
oral bioavailability [5]: orally bioavailable
effect on frequency of polysialylated neurons in the rat medial temporal lobe ([6]; chronic exposure): increased
PSA immunopositive cell frequency ([6]; Bregma level -7.1 mm): 61.7 ± 1.7 PSA-positive cells per unit length
PSA immunopositive cell frequency ([6]; Bregma level -7.6 mm): 69.9 ± 0.9 PSA-positive cells per unit length
PSA immunopositive cell frequency ([6]; Bregma level -8.1 mm): 125.4 ± 3.5 PSA-positive cells per unit length
PSA immunopositive cell frequency ([6]; Bregma level -8.6 mm): 178.3 ± 12.2 PSA-positive cells per unit length

CN1CC[C@]23c4c5ccc(O)c4O[C@H]2[C@@H](O)C=C[C@H]3[C@H]1C5 [morphine]
effect on hippocampal neurogenesis (hippocampal neurogenesis): reduce the rate of hippocampal neurogenesis

CNCCC(Oc1ccc(C(F)(F)F)cc1)c1ccccc1 (stereo not shown) [fluoxetine]
effect on hippocampal neurogenesis (hippocampal neurogenesis): stimulate hippocampal neurogenesis

CCOC(=O)[C@H](N)/C=C(\C)CP(=O)(O)O [CGP43487]
effect on hippocampal neurogenesis (hippocampal neurogenesis): reduce the rate of hippocampal neurogenesis

NCCc1c[nH]c2ccc(O)cc12 [Serotonin]
effect on hippocampal neurogenesis (hippocampal neurogenesis): stimulate hippocampal neurogenesis

CN1CCN(C2=Nc3cc(Cl)ccc3Nc3ccccc32)CC1 [clozapine, reference compound]
PSA immunopositive cell frequency ([2]; Example 1, 5 mg/kg, chronic comparison group): 69.8 ± 1.6 PSA-positive cells per unit area

N[C@@H]1C[C@H]1c1ccccc1 (racemic) [tranylcypromine]
effect on hippocampal neurogenesis (hippocampal neurogenesis): stimulate hippocampal neurogenesis

Reference: patent US20070270432A1, “Novel Method” (priority 2002, published 2007)
